Measurements: ChEMBL document CHEMBL1201862, “PubChem BioAssay data set” (2004)
The source made the active and inactive calls.

Experiments:
[1] = target: Kallikrein-7 (Homo sapiens, UniProt P49862); test: Fluorescence Intensity-based biochemical primary high throughput dose response assay to identify activators of kallikrein-7 (K7) zymogen.
[2] = test system: Vero; test: Vero cell toxicity, dose response, cytotoxicity control, plate reader, cherry-pick samples (AID 687020); assay type: functional, cell-based; settings: Chlorocebus sabaeus
[3] = inhibitors of PGC1a acetylation in cells, dose response, cell-based, cherry-picked samples (AID 720514); assay type: functional;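 further: potency may reflect raised or lowered acetylation signal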
[4] = inhibitors of intracellular T. cruzi replication, confirmation, NIH3T3 host cells, beta-gal luminescence (AID 2044); assay type: functional, cell-based;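 further: intracellular parasites grown in NIH/3T3 mouse fibroblasts as host cells; luminescent beta-galactosidase reporter signal from transgenic T. cruzi replicating inside host cells; inhibitors lower the luminescence signal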
[5] = microbe, parasite or virus in culture; assay type: functional; settings: Mycobacterium tuberculosis
[6] = cytotoxicity toward NIH3T3 fibroblasts, dose response, counter-screen, cell-based, ATP luminescence, mouse fibroblasts (AID 2010); assay type: functional;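 further: cells exposed to compound for about 90 hours before reading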
[7] = test system: INS1; test: beta cell apoptosis inhibitors, cytokine rescue, dose response, luminescence, retest (AID 449756); assay type: functional, cell-based; settings: Rattus norvegicus, INS1;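 further: cell death triggered by IL-1 beta plus TNF-alpha plus IFN-gamma mixture; protective hits raise ATP signal compared with cytokine alone wells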
[8] = inhibitors of HIV Env-driven cell fusion, dose response, cherry-pick (AID 652057); assay type: functional, cell-based
[9] = CEM21 lymphoblast cell cytotoxicity, dose response, cytotoxicity control for viral fusion inhibitor project, CellTiter-Glo luminescence, cherry-picked (AID 652042); assay type: functional, cell-based;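 further: potency for signal decrease meaning cytotoxicity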
[10] = ZM109 Env clade C HIV-1 fusion inhibitors, dose response, HeLa effector, CEM target cells, luciferase, cherry-pick (AID 652058); assay type: functional, cell-based
[11] = off-target signal loss in HeLa-CEM21 co-culture – HeLa F-luc CTL cells, cherry-picked, counter-screen for HIV-1 Env fusion inhibitor project, dose response (AID 652040); assay type: functional, cell-based;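 further: potency for signal decrease marking cytotoxic or nonspecific inhibition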
[12] = inhibitors of clade B AD8 Env fusion, dose response, cell-based, cherry-pick (AID 652062); assay type: functional;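 further: luciferase signal from cell-cell fusion driven by HIV-1 clade B AD8 Env; potency is for inhibitors of fusion seen as a drop in luminescence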
[13] = test system: Vero; test: cells; assay type: functional; settings: Chlorocebus sabaeus
[14] = target: Photoreceptor-specific nuclear receptor (Homo sapiens, UniProt Q9Y5X4); assay type: functional, cell-based;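 further: CHO-S cells with Gal4-NCOR and VP16-NR2E3 two-hybrid luciferase reporter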
Sequence of Photoreceptor-specific nuclear receptor (Q9Y5X4 whole entry, the tested form may be a part): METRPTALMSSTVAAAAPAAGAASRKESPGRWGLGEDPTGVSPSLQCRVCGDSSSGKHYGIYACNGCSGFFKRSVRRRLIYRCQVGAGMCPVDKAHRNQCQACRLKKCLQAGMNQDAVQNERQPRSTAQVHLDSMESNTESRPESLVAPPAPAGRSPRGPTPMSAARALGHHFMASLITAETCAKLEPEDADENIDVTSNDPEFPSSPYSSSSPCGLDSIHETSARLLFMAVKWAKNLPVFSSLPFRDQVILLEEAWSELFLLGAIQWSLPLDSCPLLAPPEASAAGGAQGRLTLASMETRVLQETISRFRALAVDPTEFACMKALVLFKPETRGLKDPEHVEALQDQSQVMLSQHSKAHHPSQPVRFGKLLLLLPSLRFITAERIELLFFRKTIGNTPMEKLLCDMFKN

[15] = HEK293T cell cytotoxicity, dose response, cytotoxicity control for HIV Vif inhibitor project, cherry-picks (AID 652208); assay type: functional, cell-based
[16] = target: Beta-lactamase (Salmonella choleraesuis (strain SC-B67), UniProt Q5J463); test: Epi-absorbance-based counterscreen for selective VIM-2 inhibitors: dose response biochemical high throughput screening assay to identify inhibitors of TEM-1 serine-beta-lactamase.
Sequence of Beta-lactamase (Salmonella choleraesuis (strain SC-B67), UniProt Q5J463) (Q5J463 whole entry): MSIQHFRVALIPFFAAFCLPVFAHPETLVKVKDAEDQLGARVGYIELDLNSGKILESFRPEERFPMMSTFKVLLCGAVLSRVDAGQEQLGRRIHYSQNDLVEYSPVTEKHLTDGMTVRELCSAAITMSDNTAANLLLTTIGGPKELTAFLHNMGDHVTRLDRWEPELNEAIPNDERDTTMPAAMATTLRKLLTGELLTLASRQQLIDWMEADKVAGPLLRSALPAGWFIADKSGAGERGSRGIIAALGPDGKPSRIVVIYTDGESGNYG

[17] = target: T1, Beta-lactamase (Pseudomonas aeruginosa, UniProt Q79MP6); test: IMP-1 metallo-beta-lactamase inhibitors, dose response, selectivity assay for VIM-2 inhibitor project, biochemical, epi-absorbance (AID 1920)
T1 sequence (Q79MP6 whole entry): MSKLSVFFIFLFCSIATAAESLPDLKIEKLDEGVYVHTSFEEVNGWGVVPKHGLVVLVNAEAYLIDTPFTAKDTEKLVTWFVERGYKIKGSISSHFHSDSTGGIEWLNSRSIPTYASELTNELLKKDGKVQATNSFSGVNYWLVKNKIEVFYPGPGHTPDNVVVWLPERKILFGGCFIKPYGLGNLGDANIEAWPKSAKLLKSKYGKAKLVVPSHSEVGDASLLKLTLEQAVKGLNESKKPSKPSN

[18] = target: T1, Beta-lactamase; test: […] counterscreen for selective VIM-2 inhibitors: dose response biochemical high throughput screening assay to identify inhibitors of IMP-1 metallo-beta-lactamase.
[19] = HepG2 cell cytotoxicity, dose response, cytotoxicity control, ATP luminescence, cherry-pick, activator set 2 (AID 1053143); assay type: functional, cell-based
[20] = target: T2, Mannose-6-phosphate isomerase (Homo sapiens, UniProt P34949); test: human PMI inhibitors, high substrate, primary screen, biochemical, fluorescence intensity, high mannose 6-phosphate (AID 1220)
T2 sequence (P34949 whole entry): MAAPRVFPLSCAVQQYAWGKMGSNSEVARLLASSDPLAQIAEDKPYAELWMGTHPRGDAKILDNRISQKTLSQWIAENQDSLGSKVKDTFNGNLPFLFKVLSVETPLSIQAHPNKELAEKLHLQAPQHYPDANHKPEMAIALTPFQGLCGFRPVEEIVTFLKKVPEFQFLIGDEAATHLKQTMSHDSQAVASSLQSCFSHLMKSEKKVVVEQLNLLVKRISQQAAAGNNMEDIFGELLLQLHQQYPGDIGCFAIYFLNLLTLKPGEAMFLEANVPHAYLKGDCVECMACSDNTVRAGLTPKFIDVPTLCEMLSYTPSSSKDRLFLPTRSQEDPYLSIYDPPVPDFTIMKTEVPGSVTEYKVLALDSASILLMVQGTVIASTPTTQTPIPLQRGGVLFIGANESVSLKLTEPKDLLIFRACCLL

[21] = HEK293T cytotoxicity, dose response, cytotoxicity control for miR-122 modulator project, cell-based, inhibitor set, cherry-pick, set 2 (AID 720697); assay type: functional

Sequence of Kallikrein-7 (P49862 whole entry): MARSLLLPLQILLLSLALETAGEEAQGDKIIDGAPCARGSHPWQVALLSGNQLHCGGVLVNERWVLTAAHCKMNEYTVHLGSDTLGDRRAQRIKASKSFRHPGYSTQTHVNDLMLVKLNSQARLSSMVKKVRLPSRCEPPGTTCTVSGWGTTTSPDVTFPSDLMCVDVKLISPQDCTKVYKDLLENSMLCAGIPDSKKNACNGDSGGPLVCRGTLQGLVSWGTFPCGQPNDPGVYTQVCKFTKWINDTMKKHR

## CS(=O)(=O)Nc1ccc(-c2cnc3cccnn23)cc1
[1]
  EC50: 24.1 µM (inactive)

## N#Cc1c(N2CCOCC2)nc(N)c2c(N)nc3c(c12)CC(CCl)O3 (stereo unspecified)
[1]
  EC50: > 69.5 µM (inactive)

## O=C(c1ccncc1)N1CCCC(N2CCN(c3cccc(C(F)(F)F)c3)CC2)C1 (stereo unspecified)
[2]
  AC50: 31.8 µM (active)

## O=C1C=CCCN1S(=O)(=O)/C=C/c1ccccc1
[3]
  AC50: 1.19 µM (active)

## S=C(NCc1ccc(Cl)cc1)NC12CC3CC(CC(C3)C1)C2
[4]
  EC50: 3.41 µM (active)
[5]
  CC50: 18.8 µM (active)
[6]
  EC50: > 60 µM (not active)
[7]
  AC50: 5.6 µM (active)
[8]
  AC50: 4.88 µM (active)
[9]
  AC50: 31.8 µM (active)
[10]
  AC50: 6.05 µM (active)
[11]
  AC50: 13.1 µM (active)
[12]
  AC50: 8.99 µM (active)

## CN(C)c1ncnc2c1ccn2C1OC(CO)C(O)C1O (stereo unspecified)
[13]
  CC50: > 25 µM (active)
[14]
  IC50: 1.45 µM (active)
[8]
  AC50: 4.51 µM (active)
[9]
  AC50: 1.39 µM (active)
[10]
  AC50: 3.41 µM (active)
[11]
  AC50: 1.9 µM (active)
[12]
  AC50: 1.89 µM (active)

## Cc1ccc(S(=O)(=O)c2nc(-c3ccccc3Cl)oc2N(C)C2CCN(C)CC2)cc1
[15]
  AC50: 23.3 µM (active)

## COc1ccccc1-n1c(S)nnc1-c1ccco1
[16]
  IC50: > 59.6 µM (inactive)
[17]
  IC50: > 59.6 µM (inactive)
[18]
  IC50: > 59.6 µM (inactive)

## O=C(Nc1ccc(C(=O)OC2CCCCC2)cc1)c1ccncc1
[9]
  AC50: 64.2 µM (active)
[11]
  AC50: > 70 µM (inactive)
[12]
  AC50: 13.8 µM (active)

## O=C(c1ccc2c3n(nc2c1)-c1ccc(Cl)cc1CO3)N1CCCCC1
[19]
  AC50: 26 µM (active)

## CCCCn1c(Cc2ccccc2)nnc1SCC(=O)Nc1cc(C)on1
[20]
  IC50: > 50 µM (not active)

## O=C(NC1CCCCCCC1O)c1ccccc1 (stereo unspecified)
[3]
  AC50: 35.4 µM (active)

## CC(C)C(=O)Nc1ccc2c(c1)C(=O)N(C)[C@H]1CC[C@H](CC(=O)O)O[C@H]1CO2
[21]
  AC50: 0.437 µM (active)
